Experimental data reported in PMC7569734 (Bioorganic & medicinal chemistry letters, 2019).
Entries after “also recorded” stand apart in the source; their conditions may differ. Read-outs that look alike come from different tables or passages of the source. Marks after values point to notes of the source that are not given here.

Experiments:
[1] = system: Type 2 GD patient-derived cells (L444P/L444P genotype); test: GPN-induced lysosomal calcium release assay in Type 2 GD patient-derived cells; assay type: cell-based, human; settings: for Emax: Homo sapiens, read-out: Lysosomal Ca+2 Assay Emax, GD patient-derived cells, percent activation of basal GPN-induced calcium response measured in the absence of compound
Estrogen Receptor = test: Estrogen receptor assay; assay type: cell-based

CC(C)CCC(C(=O)c1ccc(OCCN(C)C)cc1)c1ccccc1 (centres unmarked) [Compound 23]
efficacy relative to tamoxifen in calcium release assay ([1]; GD patient-derived cells, percent more efficacious than tamoxifen): roughly 30%
estrogen receptor functional activity (in words) (Estrogen Receptor; 10 μM): partial agonist activity

CC(C)C(C(=O)c1ccc(OCCN(C)C)cc1)c1ccccc1 (centres unmarked) [Compound 19]
Emax [1]: 54 to 60%

CCCCC(C(=O)c1ccc(OCCN(C)C)cc1)c1ccccc1C(C)C (centres unmarked) [Compound 28]
EC50 ([1]; read-out: Lysosomal Ca+2 Assay EC50, GD patient-derived cells, GPN-induced calcium release): 1480 nM

CCC(Cc1ccc(OCCN(C)C)cc1)c1ccccc1 (centres unmarked) [Compound 5]
activity in lysosomal calcium release assay (in words) ([1]; GD patient-derived cells): somewhat more potent than and equally efficacious as tamoxifen

CCCCC(C(=O)c1ccc(OCCN(C)C)cc1)c1ccccc1CC (centres unmarked) [Compound 26]
estrogen receptor functional activity (in words) (Estrogen Receptor; 10 μM): antagonist rather than an agonist

CC(C)CC(C(=O)c1ccc(OCCN(C)C)cc1)c1ccccc1 (centres unmarked) [Compound 22]
potency relative to tamoxifen in calcium release assay ([1]; GD patient-derived cells, fold more potent than tamoxifen): 10 fold

CCC(C(=O)c1ccc(OCCN(C)C)cc1)c1ccccc1 (centres unmarked) [Compound 17]
activity in lysosomal calcium release assay (in words) ([1]; GD patient-derived cells): little effect on lysosomal calcium release

CC(C)CC(C(=O)c1ccc(OCCN(C)C)cc1)c1ccccc1C1CC1 (centres unmarked) [Compound 31]
estrogen receptor functional activity (in words) (Estrogen Receptor; 10 μM): devoid of estrogenic activity; also recorded: lack of any estrogenic activity

CCCCCCC(C(=O)c1ccc(OCCN(C)C)cc1)c1ccccc1 (centres unmarked) [Compound 24]
activity in lysosomal calcium release assay (in words) ([1]; GD patient-derived cells): little effect on lysosomal calcium release
estrogen receptor functional activity (in words) (Estrogen Receptor; 10 μM): partial agonist activity

CC/C(=C(\c1ccccc1)c1ccc(OCCN(C)C)cc1)c1ccccc1 [Compound 1, tamoxifen, reference compound]
activity in lysosomal calcium release assay (in words) ([1]; GD patient-derived cells): partially restores lysosomal calcium in GD patient-derived cells
Estrogen Receptor % Activity @ 10 μM (inhibition) (Estrogen Receptor): 100%^††
estrogen receptor functional activity (in words) (Estrogen Receptor): antagonist activity

CCCC(CCC)(C(=O)c1ccc(OCCN(C)C)cc1)c1ccccc1 [Compound 20]
Emax [1]: 54 to 60%

CCCC(C(=O)c1ccc(OCCN(C)C)cc1)c1ccccc1 (centres unmarked) [Compound 18]
activity in lysosomal calcium release assay (in words) ([1]; GD patient-derived cells): little effect on lysosomal calcium release

CCCCC(C(=O)c1ccc(OCCN(C)C)cc1)c1ccccc1 (centres unmarked) [Compound 21]
activity in lysosomal calcium release assay (in words) ([1]; GD patient-derived cells): little effect on lysosomal calcium release; also recorded: no activity
